Patent US20260355196A1, “INHIBITORS AND DEGRADERS OF PIP4K PROTEIN” (Larkspur Biosciences, Inc., priority 2023, published 2026)

These compounds were tested against T1, PIP4K2C (Homo sapiens, UniProt Q8TBX8) (assay: HiBiT PIP4K2C degradation assay in MOLT-4 cells (endogenous PIP4K2C C-terminally tagged with HiBiT)). Settings: 6 hours of incubation time, rather than 24 hours; MOLT-4, top concentration 10 micromolar; read-out: HiBIT-degradation MOLT4 PIP4k2C DC50 (6 hours, marked *).
T1 sequence (Q8TBX8 1-421): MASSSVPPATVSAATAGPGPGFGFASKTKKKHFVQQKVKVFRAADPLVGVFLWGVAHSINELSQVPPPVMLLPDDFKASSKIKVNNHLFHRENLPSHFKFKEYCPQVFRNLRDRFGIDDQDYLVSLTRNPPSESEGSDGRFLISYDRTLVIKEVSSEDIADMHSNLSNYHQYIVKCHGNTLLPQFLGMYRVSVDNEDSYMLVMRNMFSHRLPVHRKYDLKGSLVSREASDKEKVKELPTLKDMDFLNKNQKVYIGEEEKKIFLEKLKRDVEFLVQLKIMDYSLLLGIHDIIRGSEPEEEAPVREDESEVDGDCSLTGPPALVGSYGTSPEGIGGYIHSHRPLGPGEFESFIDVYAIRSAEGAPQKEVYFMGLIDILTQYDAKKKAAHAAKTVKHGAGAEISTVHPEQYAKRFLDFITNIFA
Format: cell-based
Parameters: untagged in primary human PBMCs and monocyte-derived dendritic cells
How it was run: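 Cells are plated onto compound dilutions (10 points, 3-fold, top 10 micromolar) and incubated 24 or 6 hours at 37 C. Lytic HiBiT detection then quantifies tagged endogenous PIP4K2C in MOLT-4, and a Hill fit yields DC50.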

SMILES | DC50 [nM]
Cn1nc(N2CCC(=O)NC2=O)c2ccc(C3CCN(CC4(O)CCN(C(=O)O[C@H]5CC[C@H](Nc6ncc(F)c(-c7cccc(-c8ccccc8)c7)n6)CC5)CC4)CC3)cc21 [Compound 635, trans-4-((4-([1,1′-biphenyl]-3-yl)-5-fluoropyrimidin-2-yl)amino)cyclohexyl 4-((4-(3-(2,4-dioxotetrahydropyrimidin-1 (2H)-yl)-1-methyl-1H-indazol-6-yl)piperidin-1-yl)methyl)-4-hydroxypiperidine-1-carboxylate] | < 500
Cn1nc(N2CCC(=O)NC2=O)c2ccc(C3CCN(CC4CCN(C(=O)O[C@H]5CC[C@H](Nc6ncc(F)c(-c7cccc(-c8ccccc8)c7)n6)CC5)CC4)CC3)cc21 [Compound 636, trans-4-((4-([1,1′-biphenyl]-3-yl)-5-fluoropyrimidin-2-yl)amino)cyclohexyl 4-((4-(3-(2,4-dioxotetrahydropyrimidin-1 (2H)-yl)-1-methyl-1H-indazol-6-yl)piperidin-1-yl)methyl)piperidine-1-carboxylate] | < 500
O=C1CCC(Nc2ccc(N3CCC(N4CC5(CC(OC(=O)N6CCC(Nc7ncc(F)c(-c8cccc(-n9ccccc9=O)c8)n7)CC6)C5)C4)CC3)c(F)c2)C(=O)N1 (stereo not drawn) [Compound 637, 2-(1-(4-((2,6-dioxopiperidin-3-yl)amino)-2-fluorophenyl)piperidin-4-yl)-2-azaspiro[3.3]heptan-6-yl 4-((5-fluoro-4-(3-(2-oxopyridin-1 (2H)-yl)phenyl)pyrimidin-2-yl)amino)piperidine-1-carboxylate] | < 500
O=C1CCC(Nc2ccc(C3CCN(C[C@H]4CC[C@H](COC(=O)N5CCC(Nc6ncc(F)c(-c7cccc(-c8ccccc8)c7)n6)CC5)CC4)CC3)c(F)c2)C(=O)N1 (stereo partly drawn) [Compound 640, trans-(4-((4-(4-((2,6-dioxopiperidin-3-yl)amino)-2-fluorophenyl)piperidin-1-yl)methyl)cyclohexyl)methyl 4-((4-([1,1′-biphenyl]-3-yl)-5-fluoropyrimidin-2-yl)amino)piperidine-1-carboxylate] | < 500
Cn1nc(C2CCC(=O)NC2=O)c2ccc(N3CCN(CC4CCN(C(=O)O[C@H]5CC[C@H](Nc6ncc(F)c(-c7cccc(-c8ccccc8)c7)n6)CC5)CC4)CC3)cc21 (stereo partly drawn) [Compound 643, trans-4-((4-([1,1′-biphenyl]-3-yl)-5-fluoropyrimidin-2-yl)amino)cyclohexyl 4-((4-(3-(2,6-dioxopiperidin-3-yl)-1-methyl-1H-indazol-6-yl)piperazin-1-yl)methyl)piperidine-1-carboxylate] | < 500
O=C1CCC(Nc2ccc(C3CCN(C[C@H]4CC[C@H](COC(=O)N5CCC(Nc6ncc(F)c(-c7cccc(-n8ccccc8=O)c7)n6)CC5)CC4)CC3)c(F)c2)C(=O)N1 (stereo partly drawn) [Compound 644, trans-(4-((4-(4-((2,6-dioxopiperidin-3-yl)amino)-2-fluorophenyl)piperidin-1-yl)methyl)cyclohexyl)methyl 4-((5-fluoro-4-(3-(2-oxopyridin-1 (2H)-yl)phenyl)pyrimidin-2-yl)amino)piperidine-1-carboxylate] | < 500
O=C1CCC(Nc2ccc(N3CCC(N4CCC(C(=O)N[C@H]5CC[C@H](Nc6ncc(F)c(-c7cccc(N8CCOCC8)c7)n6)CC5)CC4)CC3)c(F)c2)C(=O)N1 (stereo partly drawn) [Compound 645, trans-1′-(4-((2,6-dioxopiperidin-3-yl)amino)-2-fluorophenyl)-N-(4-((5-fluoro-4-(3-morpholinophenyl)pyrimidin-2-yl)amino)cyclohexyl)-[1,4′-bipiperidine]-4-carboxamide] | < 500
Cn1nc(C2CCC(=O)NC2=O)c2ccc(C3CCN(CC4(O)CCN(C(=O)O[C@H]5CC[C@H](Nc6ncc(F)c(-c7cccc(-c8ccccc8)c7)n6)CC5)CC4)CC3)cc21 (stereo partly drawn) [Compound 646, trans-4-((4-([1,1′-biphenyl]-3-yl)-5-fluoropyrimidin-2-yl)amino)cyclohexyl 4-((4-(3-(2,6-dioxopiperidin-3-yl)-1-methyl-1H-indazol-6-yl)piperidin-1-yl)methyl)-4-hydroxypiperidine-1-carboxylate] | < 500
Cn1nc(C2CCC(=O)NC2=O)c2ccc(C3CCN(CC4CCN(C(=O)O[C@H]5CC[C@H](Nc6ncc(F)c(-c7cccc(-c8ccccc8)c7)n6)CC5)CC4)CC3)cc21 (stereo partly drawn) [Compound 647, trans-4-((4-([1,1′-biphenyl]-3-yl)-5-fluoropyrimidin-2-yl)amino)cyclohexyl 4-((4-(3-(2,6-dioxopiperidin-3-yl)-1-methyl-1H-indazol-6-yl)piperidin-1-yl)methyl)piperidine-1-carboxylate] | < 500
O=C1CCC(Nc2ccc(C3CCN(C4CCN(C(=O)O[C@H]5CC[C@H](Nc6ncc(F)c(-c7cccc(-n8ccccc8=O)c7)n6)CC5)CC4(F)F)CC3)c(F)c2)C(=O)N1 (stereo partly drawn) [Compound 648, trans-4-((5-fluoro-4-(3-(2-oxopyridin-1 (2H)-yl)phenyl)pyrimidin-2-yl)amino)cyclohexyl 4-(4-((2,6-dioxopiperidin-3-yl)amino)-2-fluorophenyl)-3′,3′-difluoro-[1,4′-bipiperidine]-1′-carboxylate] | > 5000
O=C1CCC(Nc2ccc(N3CCC(N4CCC(C(=O)N[C@H]5CC[C@H](Nc6ncc(F)c(-c7cccc(-c8ccccc8)c7)n6)CC5)CC4)CC3)c(F)c2)C(=O)N1 (stereo partly drawn) [Compound 649, trans-N-(4-((4-([1,1′-biphenyl]-3-yl)-5-fluoropyrimidin-2-yl)amino)cyclohexyl)-1′-(4-((2,6-dioxopiperidin-3-yl)amino)-2-fluorophenyl)-[1,4′-bipiperidine]-4-carboxamide] | < 500
O=C1CCC(Nc2ccc(N3CCN([C@H]4CC[C@H](CC(=O)N5CCC(Nc6ncc(F)c(-c7cccc(-n8ccccc8=O)c7)n6)CC5)CC4)CC3)c(F)c2)C(=O)N1 (stereo partly drawn) [Compound 650, trans-3-((3-fluoro-4-(4-(4-(2-(4-((5-fluoro-4-(3-(2-oxopyridin-1 (2H)-yl)phenyl)pyrimidin-2-yl)amino)piperidin-1-yl)-2-oxoethyl)cyclohexyl)piperazin-1-yl)phenyl)amino)piperidine-2,6-dione] | > 5000
O=C1CCC(Nc2ccc(C3CCN(C4CCN(C(=O)O[C@H]5CC[C@H](Nc6ncc(F)c(-c7cccc(-c8ccccc8)c7)n6)CC5)CC4)CC3)c(F)c2)C(=O)N1 (stereo partly drawn) [Compound 651, trans-4-((4-([1,1′-biphenyl]-3-yl)-5-fluoropyrimidin-2-yl)amino)cyclohexyl 4-(4-((2,6-dioxopiperidin-3-yl)amino)-2-fluorophenyl)-[1,4′-bipiperidine]-1′-carboxylate] | < 500
CN(C(=O)[C@H]1CC[C@H](N2CCC(c3ccc(NC4CCC(=O)NC4=O)cc3F)CC2)CC1)[C@H]1CC[C@H](Nc2ncc(F)c(-c3cccc(-n4ccccc4=O)c3)n2)CC1 (stereo partly drawn) [Compound 653, trans-4-(4-(4-((2,6-dioxopiperidin-3-yl)amino)-2-fluorophenyl)piperidin-1-yl)-N-((trans)-4-((5-fluoro-4-(3-(2-oxopyridin-1 (2H)-yl)phenyl)pyrimidin-2-yl)amino)cyclohexyl)-N-methylcyclohexane-1-carboxamide] | < 500

Same assay, conditions: read-out: HiBIT-degradation MOLT4 PIP4k2C DC50 (6 hours, marked *); 6 hours of incubation time, rather than 24 hours; MOLT-4, top concentration 10 micromolar

SMILES | DC50 [nM]
Cn1nc(N2CCC(=O)NC2=O)c2ccc(N3CCN(CC4CCN(C(=O)O[C@H]5CC[C@H](Nc6ncc(F)c(-c7cccc(-c8ccccc8)c7)n6)CC5)CC4)CC3)cc21 [Compound 634, trans-4-((4-([1,1′-biphenyl]-3-yl)-5-fluoropyrimidin-2-yl)amino)cyclohexyl 4-((4-(3-(2,4-dioxotetrahydropyrimidin-1 (2H)-yl)-1-methyl-1H-indazol-6-yl)piperazin-1-yl)methyl)piperidine-1-carboxylate] | < 500
O=C1CCC(Nc2ccc(C3CCN(CCC4(O)CCN(C(=O)O[C@H]5CC[C@H](Nc6ncc(F)c(-c7cccc(-n8ccccc8=O)c7)n6)CC5)CC4)CC3)c(F)c2)C(=O)N1 (stereo partly drawn) [Compound 641, trans-4-((5-fluoro-4-(3-(2-oxopyridin-1 (2H)-yl)phenyl)pyrimidin-2-yl)amino)cyclohexyl 4-(2-(4-(4-((2,6-dioxopiperidin-3-yl)amino)-2-fluorophenyl)piperidin-1-yl)ethyl)-4-hydroxypiperidine-1-carboxylate] | < 500
Cn1nc(C2CCC(=O)NC2=O)c2ccc(N3CCN(CC4(O)CCN(C(=O)O[C@H]5CC[C@H](Nc6ncc(F)c(-c7cccc(-c8ccccc8)c7)n6)CC5)CC4)CC3)cc21 (stereo partly drawn) [Compound 642, trans-4-((4-([1,1′-biphenyl]-3-yl)-5-fluoropyrimidin-2-yl)amino)cyclohexyl 4-((4-(3-(2,6-dioxopiperidin-3-yl)-1-methyl-1H-indazol-6-yl)piperazin-1-yl)methyl)-4-hydroxypiperidine-1-carboxylate] | < 500
O=C1CCC(Nc2ccc(N3CCC(N4CC5(CN(C(=O)O[C@H]6CC[C@H](Nc7ncc(F)c(-c8cccc(-n9ccccc9=O)c8)n7)CC6)C5)C4)CC3)c(F)c2)C(=O)N1 (stereo partly drawn) [Compound 652, (trans)-4-((5-fluoro-4-(3-(2-oxopyridin-1 (2H)-yl)phenyl)pyrimidin-2-yl)amino)cyclohexyl 6-(1-(4-((2,6-dioxopiperidin-3-yl)amino)-2-fluorophenyl)piperidin-4-yl)-2,6-diazaspiro[3.3]heptane-2-carboxylate] | < 500
